Test results taken from US9630929B2, “Benzenesulfonamide compounds and their use as therapeutic agents” (XENON PHARMACEUTICALS INC., priority 2011, dated 2017).

Experiments:
NaV1.7 [1] = target: T1, NaV1.7 (Homo sapiens (Human), UniProt Q15858); test: NaV flux assay, inhibition of NaV1.7; assay type: cell-based; conditions: NaV flux data, included when EP data is not available
NaV1.7 [2] = target: T1, NaV1.7; test: Patch voltage clamp electrophysiology (EP), affinity for the inactivated state of Nav1.7; assay type: cell-based; conditions: HEK-293 cells expressing human Nav1.7 with β1 subunit
Description: The following patch voltage clamp electrophysiology studies were performed on representative compounds of the invention using human embryonic kidney cells (HEK), permanently transfected with an expression vector containing the full-length cDNA coding for the desired human sodium channel α-subunit, grown in culture media containing 10% FBS, 1% PSG, and 0.5 mg/mL G418 at 37° C. with 5% CO2. […] Nav1.7 and Nav1.5 cDNAs (NM_002977 and AC137587; SCN5A, respectively) were stably expressed in HEK-293 cells. The β1 subunit was coexpressed only in the Nav1.7 cell line.
Sodium currents were measured using the patch clamp technique in the whole-cell configuration using either a PatchXpress automated voltage clamp or manually using an Axopatch 200B (Axon Instruments) or Model 2400 (A-M systems) amplifier. […] The pipette was filled with a solution comprised of: 5 mM NaCl, 10 mM CsCl, 120 mM CsF, 0.1 mM CaCl2, 2 mM MgCl2, 10 mM HEPES, 10 mM EGTA; and adjusted to pH 7.2 with CsOH. The external solution had the following composition: 140 mM NaCl, 5 mM KCl, 2 mM CaCl2, 1 mM MgCl2, 10 mM HEPES; and adjusted to pH 7.4 with NaOH. In some studies, the external sodium was reduced by equimolar replacement with choline. Osmolarity in the CsF internal and NaCl external solutions was adjusted to 300 mOsm/kg and 310 mOsm/kg with glucose, respectively. All recordings were performed at ambient temperature in a bath chamber with a volume of 150 μL. Control sodium currents were measured in 0.5% DMSO. Controls and representative compounds of the invention were applied to the recording chamber through a 4-pinch or 8-pinch valve bath perfusion system manufactured by ALA Scientific Instruments.
Series resistance compensation was applied (60-80%). […] All statistics in this study are given as mean±SD.
The membrane potential was maintained at a voltage where inactivation of the channel is complete (which was −60 mV for both Nav1.7 and Nav1.5). The voltage is then stepped back to a very negative (Vhold=−150 mV) voltage for 20 ms and then a test pulse is applied to quantify the compound block. […] The percent decrease in sodium current following wash-on of compound was taken as the percent block of sodium channels.
The Example numbers provided in Table 1 and Table 2 correspond to the Examples herein: […]

T1 sequence (Q15858 other isoform, or with tags, fused parts or gaps): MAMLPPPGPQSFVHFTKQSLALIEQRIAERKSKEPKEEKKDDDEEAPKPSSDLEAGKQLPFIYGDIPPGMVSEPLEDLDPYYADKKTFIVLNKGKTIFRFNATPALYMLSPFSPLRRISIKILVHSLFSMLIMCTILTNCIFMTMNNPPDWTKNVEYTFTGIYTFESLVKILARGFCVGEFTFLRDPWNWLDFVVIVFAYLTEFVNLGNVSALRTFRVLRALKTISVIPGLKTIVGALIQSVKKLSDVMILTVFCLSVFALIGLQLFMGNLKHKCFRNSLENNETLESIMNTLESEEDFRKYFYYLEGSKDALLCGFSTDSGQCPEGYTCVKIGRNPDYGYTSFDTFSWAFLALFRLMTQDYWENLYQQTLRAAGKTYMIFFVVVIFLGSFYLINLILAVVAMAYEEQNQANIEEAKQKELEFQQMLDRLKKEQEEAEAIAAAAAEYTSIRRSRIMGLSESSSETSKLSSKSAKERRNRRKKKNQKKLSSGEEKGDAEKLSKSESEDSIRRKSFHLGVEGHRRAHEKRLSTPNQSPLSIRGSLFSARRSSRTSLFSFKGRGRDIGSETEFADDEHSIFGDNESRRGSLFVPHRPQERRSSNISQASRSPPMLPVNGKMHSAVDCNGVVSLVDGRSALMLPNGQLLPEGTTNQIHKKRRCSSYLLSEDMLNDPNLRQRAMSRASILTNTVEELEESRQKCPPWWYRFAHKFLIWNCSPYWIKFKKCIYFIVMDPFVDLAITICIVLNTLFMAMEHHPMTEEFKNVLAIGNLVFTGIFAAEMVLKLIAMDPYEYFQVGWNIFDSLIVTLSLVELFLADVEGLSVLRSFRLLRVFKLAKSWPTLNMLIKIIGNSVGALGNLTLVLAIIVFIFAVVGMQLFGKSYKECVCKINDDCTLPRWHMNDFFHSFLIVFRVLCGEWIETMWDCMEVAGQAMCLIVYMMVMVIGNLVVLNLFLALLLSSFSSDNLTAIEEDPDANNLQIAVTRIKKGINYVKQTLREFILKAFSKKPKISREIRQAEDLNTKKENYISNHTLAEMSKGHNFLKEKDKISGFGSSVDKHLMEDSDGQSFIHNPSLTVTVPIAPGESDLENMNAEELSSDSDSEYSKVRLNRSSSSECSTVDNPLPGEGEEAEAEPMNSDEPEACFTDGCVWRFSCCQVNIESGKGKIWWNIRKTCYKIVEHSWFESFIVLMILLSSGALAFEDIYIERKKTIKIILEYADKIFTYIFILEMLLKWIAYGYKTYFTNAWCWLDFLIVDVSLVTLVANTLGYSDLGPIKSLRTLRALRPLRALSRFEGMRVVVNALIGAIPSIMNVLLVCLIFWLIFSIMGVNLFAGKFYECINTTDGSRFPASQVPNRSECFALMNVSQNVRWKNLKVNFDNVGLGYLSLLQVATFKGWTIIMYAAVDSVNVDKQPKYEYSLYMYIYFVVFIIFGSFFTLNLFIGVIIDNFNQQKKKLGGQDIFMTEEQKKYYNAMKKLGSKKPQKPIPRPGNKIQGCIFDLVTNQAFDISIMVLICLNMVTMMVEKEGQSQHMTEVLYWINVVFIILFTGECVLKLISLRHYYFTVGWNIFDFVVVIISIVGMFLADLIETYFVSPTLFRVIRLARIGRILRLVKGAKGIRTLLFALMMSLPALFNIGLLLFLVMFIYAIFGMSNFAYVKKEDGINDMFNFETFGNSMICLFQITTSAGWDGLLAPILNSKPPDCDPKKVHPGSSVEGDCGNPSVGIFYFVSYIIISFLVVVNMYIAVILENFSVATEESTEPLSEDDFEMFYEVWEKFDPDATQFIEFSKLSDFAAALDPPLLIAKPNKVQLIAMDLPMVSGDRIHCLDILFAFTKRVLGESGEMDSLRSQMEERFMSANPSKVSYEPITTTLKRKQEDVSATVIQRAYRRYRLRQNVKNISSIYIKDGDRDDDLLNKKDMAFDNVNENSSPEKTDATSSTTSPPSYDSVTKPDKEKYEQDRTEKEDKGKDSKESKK
T1 sequence (Q07699 19-218 partner): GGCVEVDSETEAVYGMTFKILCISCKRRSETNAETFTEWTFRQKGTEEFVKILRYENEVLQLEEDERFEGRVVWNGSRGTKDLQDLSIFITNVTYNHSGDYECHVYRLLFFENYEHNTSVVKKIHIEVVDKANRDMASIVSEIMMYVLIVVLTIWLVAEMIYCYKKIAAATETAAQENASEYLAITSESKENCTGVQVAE

| SMILES | IC50 (NaV1.7 [2]; read-out: NaV1.7 (IC50 class)) | IC50 (NaV1.7 [2]; read-out: NaV1.7 IC50) | IC50 (NaV1.7 [1]) |
| --- | --- | --- | --- |
| NS(=O)(=O)c1cc(F)c(OC[C@@H]2CNCC[C@H]2c2ccc(Cl)cc2)cc1F (relative stereo) [Example 95, 4-((trans-4-(4-chlorophenyl)piperidin-3-yl)methoxy)-2,5-difluorobenzenesulfonamide] | – | – | > 10 µM |
| Cn1cns/c1=N/S(=O)(=O)c1cc(F)c(OC[C@@H]2CNCC[C@H]2c2ccc(Cl)cc2)cc1F (relative stereo) [Example 78, (E)-4-((trans-4-(4-chlorophenyl)piperidin-3-yl)methoxy)-2,5-difluoro-N-(4-methyl-1,2,4-thiadiazol-5(4H)-ylidene)benzenesulfonamide] | – | – | 4.08 µM |
| O=S(=O)(Nc1ncns1)c1cc(F)c(OC[C@@H]2CNCC[C@H]2c2ccc(Cl)cc2)cc1F (relative stereo) [Example 44, 4-((trans-4-(4-chlorophenyl)piperidin-3-yl)methoxy)-2,5-difluoro-N-(1,2,4-thiadiazol-5-yl)benzenesulfonamide] | < 100 nM | – | – |
| Cc1cnc(NS(=O)(=O)c2cc(F)c(OC[C@@H]3CNCC[C@H]3c3ccc(Cl)cc3)cc2F)s1 (relative stereo) [Example 57, 4-((trans-4-(4-chlorophenyl)piperidin-3-yl)methoxy)-2,5-difluoro-N-(5-methylthiazol-2-yl)benzenesulfonamide] | 100 to 1000 nM | 116 nM | – |
| O=S(=O)(Nc1ncns1)c1cc(F)c(OC[C@@H]2CNCC[C@H]2c2ccc(Cl)cc2)cc1F [Example 84, 4-(((3S,4R)-4-(4-chlorophenyl)piperidin-3-yl)methoxy)-2,5-difluoro-N-(1,2,4-thiadiazol-5-yl)benzenesulfonamide] | < 100 nM | – | – |
| O=S(=O)(Nc1ncccn1)c1cc(F)c(OC[C@@H]2CNCC[C@H]2c2ccc(Cl)cc2)cc1F (relative stereo) [Example 49, 4-((trans-4-(4-chlorophenyl)piperidin-3-yl)methoxy)-2,5-difluoro-N-(pyrimidin-2-yl)benzenesulfonamide] | < 100 nM | 53.2 nM | – |
| O=S(=O)(Nc1ncns1)c1cc(F)c(OC[C@@H]2CNCC[C@H]2c2ccc(F)cc2)cc1F [Example 46, 2,5-difluoro-4-(((3S,4R)-4-(4-fluorophenyl)piperidin-3-yl)methoxy)-N-(1,2,4-thiadiazol-5-yl)benzenesulfonamide] | 100 to 1000 nM | 928 nM | – |
| Cc1nsc(NS(=O)(=O)c2cc(F)c(OC[C@@H]3CNCC[C@H]3c3ccc(Cl)cc3)cc2F)n1 (relative stereo) [Example 52, 4-((trans-4-(4-chlorophenyl)piperidin-3-yl)methoxy)-2,5-difluoro-N-(3-methyl-1,2,4-thiadiazol-5-yl)benzenesulfonamide] | 100 to 1000 nM | 194 nM | – |
| O=S(=O)(Nc1ccc(F)cn1)c1cc(F)c(OC[C@@H]2CNCC[C@H]2c2ccc(Cl)cc2)cc1F (relative stereo) [Example 63, 4-((trans-4-(4-chlorophenyl)piperidin-3-yl)methoxy)-2,5-difluoro-N-(5-fluoropyridin-2-yl)benzenesulfonamide] | < 100 nM | 70.5 nM | – |

Further lines, with some results ahead:

| IC50 (NaV1.7 [2]; read-out: NaV1.7 (IC50 class)) | IC50 (NaV1.7 [2]; read-out: NaV1.7 IC50) | SMILES | IC50 (NaV1.7 [1]) |
| --- | --- | --- | --- |
| < 100 nM | 31.7 nM | O=S(=O)(Nc1ncns1)c1cc(F)c(OC[C@@H]2CCNC[C@H]2c2ccc(F)cc2)cc1F (relative stereo) [Example 82, 2,5-difluoro-4-((trans-3-(4-fluorophenyl)piperidin-4-yl)methoxy)-N-(1,2,4-thiadiazol-5-yl)benzenesulfonamide] | – |
| < 100 nM | 1.1 nM | O=S(=O)(Nc1ncns1)c1cc(F)c(OC[C@H]2CNCC[C@@H]2c2ccc(Cl)cc2)cc1F [Example 77, 4-(((3R,4S)-4-(4-chlorophenyl)piperidin-3-yl)methoxy)-2,5-difluoro-N-(1,2,4-thiadiazol-5-yl)benzenesulfonamide] | – |
| < 100 nM | 38.1 nM | O=S(=O)(Nc1ncns1)c1cc(F)c(OC[C@@H]2CN(CC(F)F)CC[C@H]2c2ccc(Cl)cc2)cc1F (relative stereo) [Example 83, 4-((trans-4-(4-chlorophenyl)-1-(2,2-difluoroethyl)piperidin-3-yl)methoxy)-2,5-difluoro-N-(1,2,4-thiadiazol-5-yl)benzenesulfonamide] | – |
| – | 237 nM | O=S(=O)(Nc1ncns1)c1cc(F)c(OC[C@H]2CNCC[C@H]2c2ccc(Cl)cc2)cc1F (relative stereo) [Example 66, 4-((cis-4-(4-chlorophenyl)piperidin-3-yl)methoxy)-2,5-difluoro-N-(1,2,4-thiadiazol-5-yl)benzenesulfonamide] | – |
| 100 to 1000 nM | 164 nM | CC(C)(C)OC(=O)N1CC[C@@H](c2ccc(Cl)cc2)[C@H](COc2cc(F)c(S(=O)(=O)Nc3ncns3)cc2F)C1 (relative stereo) [Example 69, trans-tert-butyl 3-((4-(N-(1,2,4-thiadiazol-5-yl)sulfamoyl)-2,5-difluorophenoxy)methyl)-4-(4-chlorophenyl)piperidine-1-carboxylate] | – |
| 1000 to 10000 nM | 1890 nM | Cc1cc(NS(=O)(=O)c2cc(F)c(OC[C@@H]3CNCC[C@H]3c3ccc(Cl)cc3)cc2F)no1 (relative stereo) [Example 56, 4-((trans-4-(4-chlorophenyl)piperidin-3-yl)methoxy)-2,5-difluoro-N-(5-methylisoxazol-3-yl)benzenesulfonamide] | – |
| < 100 nM | 49.9 nM | O=S(=O)(Nc1ncns1)c1cc(F)c(OC[C@@H]2CNC[C@H]2c2ccc(Cl)cc2)cc1F (relative stereo) [Example 54, 4-((trans-4-(4-chlorophenyl)pyrrolidin-3-yl)methoxy)-2,5-difluoro-N-(1,2,4-thiadiazol-5-yl)benzenesulfonamide] | – |
| < 100 nM | 93.7 nM | O=S(=O)(Nc1ncns1)c1cc(F)c(OC[C@@H]2CN(CCF)CC[C@H]2c2ccc(Cl)cc2)cc1F (relative stereo) [Example 80, 4-((trans-4-(4-chlorophenyl)-1-(2-fluoroethyl)piperidin-3-yl)methoxy)-2,5-difluoro-N-(1,2,4-thiadiazol-5-yl)benzenesulfonamide] | – |
| 100 to 1000 nM | 280 nM | O=S(=O)(Nc1ncns1)c1cc(F)c(OC[C@@H]2CCCC[C@H]2c2ccc(F)cc2)cc1F (relative stereo) [Example 68, 2,5-difluoro-4-((trans-2-(4-fluorophenyl)cyclohexyl)methoxy)-N-(1,2,4-thiadiazol-5-yl)benzenesulfonamide] | – |
| < 100 nM | 84.4 nM | O=S(=O)(Nc1nncs1)c1cc(F)c(OC[C@@H]2CNCC[C@H]2c2ccc(Cl)cc2)cc1F (relative stereo) [Example 51, 4-((trans-4-(4-chlorophenyl)piperidin-3-yl)methoxy)-2,5-difluoro-N-(1,3,4-thiadiazol-2-yl)benzenesulfonamide] | – |
| 100 to 1000 nM | 171 nM | O=S(=O)(Nc1cccnn1)c1cc(F)c(OC[C@@H]2CNCC[C@H]2c2ccc(Cl)cc2)cc1F (relative stereo) [Example 65, 4-((trans-4-(4-chlorophenyl)piperidin-3-yl)methoxy)-2,5-difluoro-N-(pyridazin-3-yl)benzenesulfonamide] | – |
| 100 to 1000 nM | 323 nM | O=S(=O)(Nc1ncccn1)c1cc(F)c(OC[C@@H]2CNCC[C@H]2c2ccc(F)cc2)cc1F (relative stereo) [Example 50, 2,5-difluoro-4-((trans-4-(4-fluorophenyl)piperidin-3-yl)methoxy)-N-(pyrimidin-2-yl)benzenesulfonamide] | – |
